Laboratory results as given in the supplement of paper PMC10307832.

Tests used:
Test in all cases: relative viability (nuclei count vs DMSO), 5 days (fraction); higher = more cells survive
[1] = compound: CC1CC(=O)N(C2=CN=C(N=C2N1C3CCCC3)NC4=C(C=C(C=C4)C(=O)NC5CCN(CC5)C)OC)C [NPK76-II-72-1] + Nc1ncn([C@H]2C[C@H](O)[C@@H](CO)O2)c(=O)n1 [Decitabine] (partner 2 µM)
Outline: (§1)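 Lung cancer cell lines in 1536-well plates got either a single drug or a fixed anchor-drug dose together with five library-drug doses (not always all listed) in √10 steps, by pin tool, on the day after seeding. Nuclei were counted after 5 days, and relative viability is the treated-to-vehicle ratio of nuclei counts. Values are medians of duplicate plates.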

[2] = compound: CC1CC(=O)N(C2=CN=C(N=C2N1C3CCCC3)NC4=C(C=C(C=C4)C(=O)NC5CCN(CC5)C)OC)C [NPK76-II-72-1] + N=C(N)NC(=N)NCCc1ccccc1 [Phenformin] (partner 250 µM)
Outline: as §1

[3] = compound: CC1CC(=O)N(C2=CN=C(N=C2N1C3CCCC3)NC4=C(C=C(C=C4)C(=O)NC5CCN(CC5)C)OC)C [NPK76-II-72-1] + CC(=O)Nc1cccc(-n2c(=O)n(C3CC3)c(=O)c3c(Nc4ccc(I)cc4F)n(C)c(=O)c(C)c32)c1 [Trametinib] (partner 0.02 µM)
Outline: as §1

[4] = compound: CC[C@@H]1C(=O)N(C)c2cnc(Nc3ccc(C(=O)NC4CCN(C)CC4)cc3OC)nc2N1C1CCCC1 [BI-2536] + CC1(C)CCC(c2ccc(Cl)cc2)=C(CN2CCN(c3ccc(C(=O)NS(=O)(=O)c4ccc(N[C@H](CCN5CCOCC5)CSc5ccccc5)c(S(=O)(=O)C(F)(F)F)c4)cc3)CC2)C1 [Navitoclax] (partner 0.5 µM)
Outline: as §1

Cell Line	relative viability ([1]; first compound 0.01 µM)	relative viability ([1]; first compound 0.03162 µM)	relative viability ([1]; first compound 0.1 µM)	relative viability ([1]; first compound 1 µM)	relative viability ([2]; first compound 0.01 µM)	relative viability ([2]; first compound 0.03162 µM)	relative viability ([2]; first compound 0.1 µM)	relative viability ([2]; first compound 0.3162 µM)	relative viability ([2]; first compound 1 µM)	relative viability ([3]; first compound 0.01 µM)	relative viability ([3]; first compound 0.03162 µM)	relative viability ([3]; first compound 0.1 µM)	relative viability ([3]; first compound 1 µM)	relative viability ([1]; first compound 0.3162 µM)	relative viability ([3]; first compound 0.3162 µM)	relative viability ([4]; first compound 0.01 µM)	relative viability ([4]; first compound 0.03162 µM)	relative viability ([4]; first compound 0.1 µM)	relative viability ([4]; first compound 0.3162 µM)	relative viability ([4]; first compound 1 µM)
NCI-H522	0.74	0.598	0.686	0.633	0.557	0.732	0.639	0.563	0.699	0.811	0.619	0.747	0.79	–	–	–	–	–	–	–
HCC-15	0.559	0.675	0.638	0.671	0.456	0.564	0.462	0.444	0.494	0.35	0.329	0.342	0.393	0.682	0.357	0.709	0.693	0.497	0.202	0.101
A-427	0.547	0.592	0.611	0.574	0.263	0.309	0.341	0.295	0.397	0.732	0.743	0.812	0.812	0.541	0.691	0.961	0.979	0.941	0.284	0.165
NCI-H2228	–	–	–	–	0.301	0.345	0.328	0.324	0.296	0.348	0.63	0.538	0.571	–	0.285	1.03	0.999	0.933	0.0826	0.121
NCI-H1734	0.49	0.456	0.479	0.525	0.374	0.38	0.379	0.427	0.425	0.621	0.645	0.587	0.643	0.479	0.638	0.746	0.629	0.636	0.102	0.113
PC-14	0.206	0.286	0.226	0.222	0.562	0.462	0.585	0.585	0.628	0.741	0.848	0.698	0.798	0.259	0.678	1.05	1.06	0.902	0.0528	0.0559
NCI-H1915	0.256	0.257	0.27	0.278	0.363	0.39	0.363	0.34	0.357	0.286	0.307	0.294	0.295	0.261	0.313	0.781	0.765	0.694	0.11	0.0514
NCI-H1666	0.809	0.755	0.705	0.733	0.509	0.581	0.577	0.584	0.583	0.851	0.859	0.847	1.05	0.713	0.732	1.13	0.905	0.702	0.262	0.214
HCC-366	0.333	0.381	0.378	0.373	0.593	0.669	0.65	0.559	0.607	0.336	0.403	0.372	0.424	0.301	0.308	1.1	1.1	0.809	0.0109	0.0154
SK-MES-1	0.359	0.441	0.434	0.455	0.649	0.718	0.646	0.643	0.722	0.543	0.583	0.489	0.555	0.364	0.593	1.21	1.37	1.14	0.126	0.139
SW 1573	0.508	0.579	0.51	0.505	0.33	0.438	0.33	0.319	0.452	0.471	0.511	0.633	0.658	0.649	0.483	1.04	1.05	1.05	0.0673	0.0547
NCI-H661	0.582	0.553	0.589	0.56	0.278	0.255	0.282	0.279	0.245	0.622	0.685	0.589	0.611	0.458	0.526	–	–	–	–	–
PC-3 [JPC-3]	0.811	–	0.882	0.95	0.475	0.484	0.487	0.453	0.472	0.701	–	0.705	0.703	0.878	0.737	0.849	0.774	0.743	0.319	0.212
NCI-H1623	–	–	–	–	0.562	0.563	0.622	0.324	0.622	–	–	–	–	–	–	–	–	–	–	–
Calu-6	–	–	–	–	–	–	–	–	–	–	–	–	–	–	–	0.825	0.397	0.106	0.0854	0.0728
